According to patent publication US8304443B2, “Indazole derivatives” (Asahi Kasei Pharma Corporation, priority 2008, dated 2012):

Tests used:
[1] = molecular target: T1, human α1A adrenergic receptor (Homo sapiens, UniProt P35348); experiment: Test example 4: human α1A adrenergic receptor agonist activity (Ca flux, Fura-2); type: cell-based; conditions: for Emax: Table 4, Test example 4, maximum response to norephinephrine taken as 100%, read-out: α1A receptor I.A.
T1 construct: expressed in transfected cells; host or cells: HEK293 cells, pcDNA3.1(−), geneticin-selected
T1 sequence (P35348 1-466): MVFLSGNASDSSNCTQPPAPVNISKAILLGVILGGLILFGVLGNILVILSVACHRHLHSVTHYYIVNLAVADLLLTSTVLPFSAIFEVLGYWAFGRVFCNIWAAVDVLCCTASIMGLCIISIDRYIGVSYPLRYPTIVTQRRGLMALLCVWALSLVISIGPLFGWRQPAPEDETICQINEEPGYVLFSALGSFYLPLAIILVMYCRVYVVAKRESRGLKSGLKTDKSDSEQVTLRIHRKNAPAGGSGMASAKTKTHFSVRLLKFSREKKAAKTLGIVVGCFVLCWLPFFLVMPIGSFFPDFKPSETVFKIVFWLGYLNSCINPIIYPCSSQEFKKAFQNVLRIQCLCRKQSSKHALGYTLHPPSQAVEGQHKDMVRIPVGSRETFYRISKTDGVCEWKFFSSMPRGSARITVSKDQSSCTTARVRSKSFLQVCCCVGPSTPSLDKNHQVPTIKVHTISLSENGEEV
Experimental: Human α1A adrenergic receptor agonist activity is determined by using HEK293 cells transfected with pcDNA3.1(−) (Invitrogen) to which human α1A gene has been inserted. These cells are cultured in a DMEM medium containing 10% fetal bovine serum, 400 μg/mL geneticin (Gibco BRL), 100 U/ml penicillin and 100 μg/ml streptomycin. […] After carrying out the loading for 30 minutes in a CO2 incubator, excess Fura-2AM is removed by washing the cells twice with the assay buffer. The cells obtained after the centrifuge is prepared to 5×10^6 cells/ml by using the assay buffer, and aliquoted into a 96-well UV plate (manufactured by Corning Inc.) to give a cell plate (80 μl/well). […] After the measurement for about 30 seconds, 20 μl of the test sample from the sample plate is added to the cell plate and the measurement is continued for another 270 seconds. Ca flux caused by the test compound is obtained from the peak height difference between the maximum value of fluorescence intensity ratio at 340 nm and 380 nm after the addition of the test compound and the fluorescence intensity ratio before the addition of the test compound. Maximum response to norephinephrine as a positive control is taken as 100%, and the maximum response ratio of each test compound is obtained as Intrinsic Activity [I.A. (%)].

[2] = test system: urinary bladder smooth muscle isolated from common marmoset; experiment: Test example 7: relaxant activity on urinary bladder smooth muscle isolated from common marmoset; conditions: strips contracted by 40 mmol/L KCl, papaverine 10^−4 mol/L relaxation = 100%
Experimental: Specifically, a common marmoset (CLEA Japan, Inc.) is bled to exsanguinated death, and then the urinary bladder is taken out of the marmoset via laparotomy. […] A resting tension of 1 g is applied to the strips, which is then equilibrated for more than 30 minutes. […] The final concentration is 10^−9, 10^−8, 10^−7, 10^−8, 10^−5 and 10^−4 mol/L. Upon the completion of the relaxation response to the test compound at the highest concentration, papaverine with final concentration of 10^−4 mol/L is added and the maximum relaxation response is obtained for each strip. This relaxation response is taken as 100%, and the relaxation ratio (%) is obtained for the test compound at the concentrations of 10^−5 and 10^−4 mol/L.

[3] = Test example 14: stability in phosphate buffer solution having pH 6.8; type: physicochemical; conditions: for HPLC area percentage at 24 hours after the filtration / HPLC area percentage at 48 hours after the filtration / HPLC area percentage right after the filtration: phosphate buffer solution pH 6.8; for stability in phosphate buffer solution pH 6.8 (finding): up to 48 hours
Experimental: Test compound is prepared to saturation state in pure water. The resulting solution is shaken at room temperature for 1 hour. To a filter tube, the entire solution obtained after the shaking is transferred and is subjected to centrifugal filtration at room temperature. The filtrate is analyzed by HPLC right after the filtration, 24 hours, and 48 hours after the filtration. Then, by using a calibration curve, stability of the test compound is obtained from the peak area value.
Except that pure water is replaced with phosphate buffer solution having pH 6.8, the test is carried out in the same method as Test example 13 to obtain the stability of the test compound.

Row | EC50 [1] [nM] | Emax [1] [%] | HPLC area percentage at 24 hours after the filtration [3] [%] | HPLC area percentage at 48 hours after the filtration [3] [%] | HPLC area percentage right after the filtration [3] [%] | stability in phosphate buffer solution pH 6.8 (finding) [3] | SMILES | relaxant activity (%) 10^−4 M [2] [%] | relaxant activity (%) 10^−5 M [2] [%]
1 | 1670 | 20 | 95.5 | 95.5 | 95.7 | stable | CS(=O)(=O)Nc1cccc([C@@H](O)CNCCOc2ccc3c(C4CC4)n[nH]c3c2)c1 [Example 1, (R)—N-(3-(1-Hydroxy-2-(2-(3-cyclopropylindazol-6-yloxy)ethylamino)ethyl)phenyl)methanesulfonamide] | 55.7 | 38.6
2 |  | 10 | 93.3 | 94.5 | 95.1 | stable | CS(=O)(=O)Nc1cccc([C@@H](O)CNCCOc2ccc3c(C4CCC4)n[nH]c3c2)c1 [Example 2, (R)—N-(3-(1-Hydroxy-2-(2-(3-cyclobutylindazol-6-yloxy)ethylamino)ethyl)phenyl)methanesulfonamide] | 65.6 | 50.8
